Measurements published in patent publication US6265438A, “Vitamin compatible micronutrient supplement” (Heritage Technologies, LLC, priority 1999, dated 2001).
Like-named read-outs stand apart in the source and are kept apart here.

Assays:
Water solubility = assay type: physicochemical
[1] = Hygroscopicity (weight gain in 90% humidity); assay type: physicochemical; conditions: 140 hr
Procedure: Tribasic zinc sulfate can be prepared in a reaction system depicted in FIG. 1. Initially the reactor vessel contained 100 ml of dionized water.
Initially the reactor vessel contained 100 ml of an aqueous solution of ammonium sulfate (400 g/l).

[2] = Chick feeding trial: feed intake, body weight, bone ash; assay type: in vivo; conditions: chicks fed 3 weeks
Procedure: Feed intake was recorded per pen.
Relative bioavailability estimates were calculated using slope ratios.

[3] = in vivo
Procedure: Chicks were fed the respective basal diets for 21 days. There were six pens each containing six chicks (three male and three female) for each of eight dietary treatments, for a total of 288 birds. Chicks were housed in two Petersime brooder units with stainless steel fittings and maintained on a 24-hour constant light schedule. Tap water containing no detectable zinc and feed were available ad libitum. Feed intake was recorded per pen. At the end of the experiment, birds were weighed individually, killed by cervical dislocation, and right tibia removed and frozen individually for zinc analysis.
Zinc concentrations in basal diet, water, zinc sources, and tibias were determined by flame atomic absorption spectrophotometry (Model 5000 with an AS-50 autosampler, Perkin-Elmer, Norwalk Conn. 06859-0156, Anonymous, 1982. Analytical Methods for Atomic Absorption Spectrophotometry. Perkin-Elmer Corp., Norwalk, Conn.). Diet samples were dried at 105° C. for 12 hours, then were dry ashed at 550° C. for 12 hours, solubilized in HCl, and filtered through 42 Whatman paper. Bones were boiled for approximately 10 minutes in deionized water and cleaned of all soft tissue. Tibias with associated cartilages were dried for 12 hours at 105° C., extracted in a Soxhlet apparatus with petroleum ether for 48 hours prior to ashing, and then solubilized as indicated above. Water was concentrated 10-fold by evaporation on a hotplate. Zinc sources were refluxed for 4 hours in 1:1 (v:v) concentrated HCl--HNO3 and filtered through 42 Whatman paper. Standards were matched for macroelement and acid concentrations as needed.
Data were analyzed by two-way ANOVA with a model that included zinc source, dietary zinc concentration, and their interaction. Each of the six pens were used as experimental units. Body weight, feed intake, and percentage of bone ash were also analyzed by the General Linear Models (GLM) (SAS Institute, 1990. SAS/STAT User's Guide (Release 6.04) SAS Institute Inc., Cary, N.C.) with an LSMEANS statement and PDIFF option to compare treatment means. Multiple linear regression of bone zinc concentration on added dietary zinc concentration was calculated using GLM. Relative bioavailability estimates were calculated using slope ratios.

[4] = Sandoval et al. (1997), similar sample, cited from earlier work
[5] = 98 ° F., about 3 months, 131400 min, cited from earlier work
E. coli = experiment: Effect of zinc compounds on bacteria (colony count); assay type: cell-based, DMV strain; conditions: each of the bacteria tested
Procedure: (§1) A series of 42 test tubes were filled with 7 ml of distilled water, and the pH of the water was adjusted to a pH of 7. Fourteen tubes were selected, and 1 ml of an aqueous stock solution containing DMV (DelMarVa-Delaware, Maryland, Virginia source) strain of E. coli was added to each of the 14 tubes. A second set of 14 tubes was selected. To each tube in this second set was added 1 ml stock solution containing a DMV strain of salmonella. A third set of 14 tubes was then selected, and to each these tubes was added 1 ml of a stock solution containing a DMV strain of camplobacter.
(§2) Two tubes from each of the three sets served as controls, and no zinc compounds were added to these controls. […] The pH of half of the tubes from each set was adjusted to a pH of 2 by the addition of concentrated HCl; the pH of the other half of the tubes was maintained at a pH of 7. Sufficient water was added to each tube to provide a final volume of 10 ml. All the tubes were placed in an incubator that was maintained at 37° C. for three hours.
(§3) After three hours, 0.20 ml was taken from each of the tubes, of which 0.1 ml was used to inoculate a MacConley Ager plate and 0.1 ml was used to inoculate a Blood Ager plate. […] After 24 hours, each late was examined and the number of colonies on each plate was evaluated.

Salmonella = experiment: as above; assay type: cell-based, DMV strain; conditions: each of the bacteria tested
Procedure: as §1, §2, §3

Camplobacter = experiment: as above; assay type: cell-based, DMV strain; conditions: each of the bacteria tested

Row | Compound | Hygroscopicity [1] | Body Weight ([2]; added Zn 400 ppm) [g] | Bone Ash ([2]; added Zn 400 ppm) [ash wt %] | Feed Intake ([2]; added Zn 400 ppm) [g/bird] | Bioavailability of zinc (in words) [3] | Slope ± SE (regression of bone zinc concentration on added dietary zinc concentration) [3] | Body Weight ([2]; added Zn 200 ppm) [g] | Bone Ash ([2]; added Zn 200 ppm) [ash wt %] | Feed Intake ([2]; added Zn 200 ppm) [g/bird] | also measured
1 | tribasic zinc sulfate | about 4.65 % weight gain | – | – | – | – | – | – | – | – | Water solubility (Water solubility): about 15 mg zinc per liter
2 | [O]=[Zn] [zinc oxide] | – | 588 | 44.4 | 709 | lower (P<0.05) than that for other sources | 0.0584 ± 0.0309 | – | – | – | Relative bioavailability value (slope ratio) ([3]; chicken, 30240 min): 49.0±10.1%; Relative value ± SE (slope ratio of bone zinc regression) ([3]; chicken, 30240 min): 49.0 ± 10.1; 95% Confidence Interval of relative value [3]: 28.7-69.2; Solubility in HCl ([4]; 60 min): 99%; Solubility in citric acid ([4]; 60 min): 69%; Solubility in neutral ammonium citrate ([4]; 60 min): 53%; Solubility in water [4]: insoluble
3 | [Cl-].[Cl-].[Zn+2] [reagent grade zinc chloride, zinc chloride] | 126.5 % weight gain | – | – | – | – | – | – | – | – | –
4 | Cc1ncc(CO)c(CO)c1O [pyridoxine] | – | – | – | – | – | – | – | – | – | Loss of pyridoxine activity ([5]; multi-vitamin premixes containing inorganic trace minerals): about 55%; Loss of pyridoxine activity ([5]; premix containing no trace minerals): about 24%
5 | O=S(=O)([O-])[O-].[Cu+2].[Cu+2].[Cu+2].[Cu+2].[OH-].[OH-].[OH-].[OH-].[OH-].[OH-] [tribasic copper sulfate] | about 1.73 % weight gain | – | – | – | – | – | – | – | – | Water solubility (Water solubility): about 430 mg Cu per liter
6 | basic zinc chloride | – | 563 | 43.6 | 652 | equal to that of reagent grade zinc sulfate | 0.1273 ± 0.0316 | 592 | 45.1 | 724 | –
7 | O.O.O.O.O.O=S(=O)([O-])[O-].[Cu+2] [copper sulfate pentahydrate] | 14.4 % weight gain | – | – | – | – | – | – | – | – | –
8 | tribasic zinc chloride | – | – | – | – | – | – | – | – | – | Growth rate of bacteria (in words) (E. coli): significantly reduced the growth rate; Growth rate of bacteria (in words) (Salmonella): significantly reduced the growth rate; Growth rate of bacteria (in words) (Camplobacter): significantly reduced the growth rate
9 | O.O.O.O.O.O.O.O=S(=O)([O-])[O-].[Zn+2] [reagent grade zinc sulfate, zinc sulfate heptahydrate, reference compound] | 36.1 % weight gain | 559 | 42.8 | 679 | – | 0.1193 ± 0.0316 | 574 | 44.2 | 710 | –
10 | basic zinc sulfate | – | 599 | 44.5 | 708 | equal to that of reagent grade zinc sulfate | 0.1200 ± 0.0316 | 585 | 44.4 | 690 | –
